Assays:
[1] = molecular target: T1, AXL (Homo sapiens, UniProt P30530); experiment: biochemical; conditions: read-out: % enzyme activity, 1 μM; Run 1, Run 2
T1 sequence (P30530 26-894): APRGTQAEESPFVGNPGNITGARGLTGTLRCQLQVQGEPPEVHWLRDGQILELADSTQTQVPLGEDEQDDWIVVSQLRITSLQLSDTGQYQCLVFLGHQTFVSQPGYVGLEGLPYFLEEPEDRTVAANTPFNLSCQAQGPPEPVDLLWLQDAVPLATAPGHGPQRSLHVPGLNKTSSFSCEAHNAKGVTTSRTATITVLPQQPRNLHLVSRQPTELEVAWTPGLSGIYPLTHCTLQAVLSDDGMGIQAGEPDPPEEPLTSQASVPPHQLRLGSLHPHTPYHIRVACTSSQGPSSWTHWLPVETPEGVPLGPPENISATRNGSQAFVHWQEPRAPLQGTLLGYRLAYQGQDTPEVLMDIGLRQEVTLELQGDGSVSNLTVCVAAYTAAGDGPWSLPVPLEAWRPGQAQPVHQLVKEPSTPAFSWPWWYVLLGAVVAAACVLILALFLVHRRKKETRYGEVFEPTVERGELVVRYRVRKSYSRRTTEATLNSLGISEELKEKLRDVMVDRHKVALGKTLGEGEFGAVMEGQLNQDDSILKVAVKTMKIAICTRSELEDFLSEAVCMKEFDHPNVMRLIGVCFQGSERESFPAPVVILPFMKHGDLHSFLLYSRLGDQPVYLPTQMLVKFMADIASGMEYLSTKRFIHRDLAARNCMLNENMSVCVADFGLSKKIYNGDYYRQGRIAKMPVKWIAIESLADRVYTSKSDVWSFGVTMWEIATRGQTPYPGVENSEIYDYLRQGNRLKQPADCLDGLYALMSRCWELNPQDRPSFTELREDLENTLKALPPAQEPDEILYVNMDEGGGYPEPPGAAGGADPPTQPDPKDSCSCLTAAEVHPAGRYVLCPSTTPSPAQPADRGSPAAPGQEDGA

[2] = molecular target: T2, EPHB2 (Homo sapiens, UniProt P29323); conditions: 1 μM; Run 1, Run 2
T2 sequence (P29323 19-1055): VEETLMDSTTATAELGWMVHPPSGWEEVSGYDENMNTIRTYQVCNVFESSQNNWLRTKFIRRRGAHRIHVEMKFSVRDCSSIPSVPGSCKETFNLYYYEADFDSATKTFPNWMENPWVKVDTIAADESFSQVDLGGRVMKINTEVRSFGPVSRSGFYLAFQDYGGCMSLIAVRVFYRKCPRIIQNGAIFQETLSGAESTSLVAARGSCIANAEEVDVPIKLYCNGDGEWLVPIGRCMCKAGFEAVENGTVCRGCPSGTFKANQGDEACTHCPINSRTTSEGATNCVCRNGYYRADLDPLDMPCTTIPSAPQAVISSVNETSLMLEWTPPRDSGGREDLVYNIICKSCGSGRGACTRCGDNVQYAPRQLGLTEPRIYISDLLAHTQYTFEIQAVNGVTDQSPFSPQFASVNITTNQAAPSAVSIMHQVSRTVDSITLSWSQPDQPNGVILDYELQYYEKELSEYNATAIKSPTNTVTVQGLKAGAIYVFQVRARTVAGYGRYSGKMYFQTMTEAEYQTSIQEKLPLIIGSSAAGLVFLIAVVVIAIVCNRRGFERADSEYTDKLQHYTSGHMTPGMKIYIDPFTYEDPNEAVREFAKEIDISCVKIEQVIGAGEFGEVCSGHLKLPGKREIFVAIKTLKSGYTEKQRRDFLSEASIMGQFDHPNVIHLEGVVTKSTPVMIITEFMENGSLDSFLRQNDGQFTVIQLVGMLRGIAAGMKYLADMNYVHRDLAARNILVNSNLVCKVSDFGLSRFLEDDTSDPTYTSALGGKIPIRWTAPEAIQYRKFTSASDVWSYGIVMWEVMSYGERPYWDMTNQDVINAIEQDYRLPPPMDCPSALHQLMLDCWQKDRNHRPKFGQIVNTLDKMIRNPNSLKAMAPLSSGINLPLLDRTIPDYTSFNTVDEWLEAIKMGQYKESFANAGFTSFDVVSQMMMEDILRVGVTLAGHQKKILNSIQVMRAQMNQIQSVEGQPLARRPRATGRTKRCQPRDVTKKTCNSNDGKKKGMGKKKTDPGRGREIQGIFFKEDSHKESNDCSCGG

[3] = molecular target: T3, TLK1 (Homo sapiens, UniProt Q9UKI8); conditions: 1 μM; Run 1, Run 2
T3 sequence (Q9UKI8 1-766): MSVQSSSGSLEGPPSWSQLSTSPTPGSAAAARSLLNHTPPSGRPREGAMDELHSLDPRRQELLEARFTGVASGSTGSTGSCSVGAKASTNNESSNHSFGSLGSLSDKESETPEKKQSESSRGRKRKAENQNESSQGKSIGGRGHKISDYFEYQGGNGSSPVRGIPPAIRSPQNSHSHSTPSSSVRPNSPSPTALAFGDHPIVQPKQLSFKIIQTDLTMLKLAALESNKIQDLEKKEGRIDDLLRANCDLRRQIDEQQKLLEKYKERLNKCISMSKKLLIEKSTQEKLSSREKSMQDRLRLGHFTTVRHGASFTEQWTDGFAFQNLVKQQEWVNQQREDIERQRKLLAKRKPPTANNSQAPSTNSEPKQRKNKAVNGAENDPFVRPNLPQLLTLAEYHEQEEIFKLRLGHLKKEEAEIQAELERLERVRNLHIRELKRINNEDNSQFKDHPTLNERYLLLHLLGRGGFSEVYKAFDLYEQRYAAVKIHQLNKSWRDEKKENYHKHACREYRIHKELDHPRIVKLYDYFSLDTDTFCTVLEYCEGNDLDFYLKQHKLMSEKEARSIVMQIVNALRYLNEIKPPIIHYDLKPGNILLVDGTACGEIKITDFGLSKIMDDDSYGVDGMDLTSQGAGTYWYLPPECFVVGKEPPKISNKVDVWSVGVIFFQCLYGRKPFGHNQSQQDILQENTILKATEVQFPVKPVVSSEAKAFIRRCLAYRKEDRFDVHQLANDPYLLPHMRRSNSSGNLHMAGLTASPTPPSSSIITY

COc1cc(-c2cncc(-c3ccc(N4CCN(C)CC4)cc3)c2C)cc(F)c1C(N)=O [Compound 26a, 2-Fluoro-6-methoxy-4-(4-methyl-5-(4-(4-methylpiperazin-1-yl)phenyl)pyridin-3-yl)benzamide]
remaining activity at 1 µM [1]: 81.8%
% enzyme activity [2]: 92.89%
% enzyme activity [3]: 107.91%

COc1cc(-c2cncc(-c3ccc(N4C[C@@H](C)N(C)[C@@H](C)C4)cc3)c2C)cc(F)c1C(N)=O [Compound 26c, 2-Fluoro-6-methoxy-4-(4-methyl-5-(4-((3R,5S)-3,4,5-trimethylpiperazin-1-yl)phenyl)pyridin-3-yl)benzamide]
remaining activity at 1 µM [1]: 91.3%
% enzyme activity [2]: 97.40%
% enzyme activity [3]: 100.84%

From publication PMC8213057, “Targeting ALK2: An Open Science Approach to Developing Therapeutics for the Treatment of Diffuse Intrinsic Pontine Glioma” (Journal of Medicinal Chemistry, 2020)
